Each structure is given as a SMILES string.

As usually defined, the IC50 is the midpoint of a concentration-inhibition curve.

This experiment deals with S. Typhimurium PhoP-promoter GFP reporter counterscreen, fluorescence, 4 h. The experiment in a line: S. Typhimurium GFP fluorescence dose response in modified counterscreen for PhoP regulon inhibitor project (AID 1981).
For the molecule `CN1CCN(CCCN2c3ccccc3Sc3ccc(Cl)cc32)CC1`, the IC50 is 148 µM.

With `CCn1cc(C(=O)O)c(=O)c2cc(F)c(N3CCN(C(=S)NC(=O)c4ccccc4F)CC3)cc21`, the IC50 was 79.4 µM. As for `C=C1c2cccc(O)c2C(O)=C2C(=O)[C@]3(O)C(O)=C(C(N)=O)C(=O)[C@@H](N(C)C)[C@@H]3[C@@H](O)[C@H]12`, the IC50 is 0.39 µM. For `Oc1c(C(Nc2nc3ccccc3s2)c2ccco2)ccc2cccnc12` (stereo not given), the 50% inhibitory concentration (IC50) was 57 µM. Then `Cc1ccccc1NC(=O)CCC(=O)N/N=C/c1cc([N+](=O)[O-])ccc1O`, with 138 µM. `Cc1conc1NC(c1cccs1)c1ccc2cccnc2c1O` (stereo not given): the 50% inhibitory concentration (IC50) is 36.8 µM. For `O=c1c(O)cccc2cc(O)c(O)c(O)c12`, the IC50 is 18.2 µM. In the case of `COc1cc(Cc2cc(N)nc(N)n2)cc(OC)c1OC`, the IC50 is 1 µM. Consider `O=C(NC(=S)NNC(=O)c1ccccc1O)c1ccco1`, for which the IC50 is 41.8 µM. Then `CO/N=C(/C(=O)N[C@@H]1C(=O)N2C(C(=O)O)=CCS[C@H]12)c1cnc(N)s1`, with 23.6 µM.

As for `O=C(CN1CCCC1)N/N=C/c1c(O)ccc2ccccc12`, the IC50 is 70.6 µM.

Regarding `NC1=NC[C@H](Cc2ccc(O)cc2)N1CCC12CC3CC(CC(C3)C1)C2`, the IC50 was 78.9 µM. Next, `O=S(=O)(Nc1cc(Sc2ncn[nH]2)c(O)c2ccccc12)c1ccccc1`: 149 µM. In the case of `NC1CCN(c2c(F)cc3c(=O)c(C(=O)O)cn(C4CC4)c3c2Cl)C1` (stereo not given), the IC50 was below 0.23 µM. Next, `COc1c(N2CCNC(C)C2)c(F)cc2c(=O)c(C(=O)O)cn(C3CC3)c12` (stereo not given): 0.44 µM; `O=C(Nc1nc(-c2ccccn2)cs1)c1ccc(Cl)s1`: 27.8 µM.

In the case of `COc1ccc(OCc2n(CC(=O)OC3CC(C)CCC3C(C)C)c3ccccc3[n+]2C)cc1` (stereo not given), the IC50 is 113 µM.

Take `Oc1c(CN2CCc3ccccc3C2)cc(Cl)c2cccnc12`: the IC50 is 7.36 µM.

Regarding `Nc1nc2ccccc2n1Cc1ccc(Cl)c(Cl)c1`, the IC50 is 85.6 µM. As to `COc1cc(C(=O)Oc2c(CN3CCOCC3)cc(Cl)c3cccnc23)cc(OC)c1OC`, the IC50 was 113 µM.

As to `CCn1cc(C(=O)O)c(=O)c2cc(F)c(N3CCN(C(=S)NC(=O)c4ccc(OC)cc4)CC3)cc21`, the IC50 was 13.4 µM. For the molecule `O=S1(=O)N=C(N/N=C/c2ccccn2)c2ccccc21`, the IC50 was 29.1 µM. Turning to `CCCNC(=O)c1cn(CC)c2cc(N3CCN(C)CC3)c(F)cc2c1=O`, the IC50 is 40.5 µM. Regarding `CCCCCCCCNC(C)C(O)c1ccc(SC(C)C)cc1` (stereo not given), the IC50 is 121 µM.

In the case of `c1ccc(-c2nnc(-c3ccccn3)nc2NC2CCCCC2)cc1`, the IC50 is 148 µM. Consider `CCn1cc(C(=O)O)c(=O)c2cnc(N3CCNCC3)nc21`, for which the IC50 was 58.4 µM.

On to `COc1cnc(-c2ccccn2)[nH]c1=O`, for which the IC50 is 45.7 µM.

`c1ccc(-c2cccc(-c3ccccn3)n2)nc1`: the IC50 is 16.4 µM. On to `CCC(C)NC(=O)c1cn(CC)c2cc(N3CCN(C)CC3)c(F)cc2c1=O` (stereo not given), for which the IC50 is 59 µM. For `CC(=O)NC(c1ccc2ccccc2c1)c1ccc2cccnc2c1O` (stereo not given), the IC50 was 46.2 µM.

For `O=C1NC(=S)S/C1=C\C=C\c1ccc([N+](=O)[O-])o1`, the concentration for half-maximal inhibition (IC50) was 29.2 µM.

Turning to `CCc1ccc(NC(=O)C[n+]2cc(-c3ccc(C)cc3)n3c2CCC3)cc1`, the IC50 was 146 µM.

Take `NC1=NC[C@H](c2ccccc2)N1CCCCC1CCCCC1`: the IC50 is 66 µM. Turning to `Nc1cc(Cl)c2nonc2c1[N+](=O)[O-]`, the IC50 was 39.8 µM. Turning to `O=CN/N=C/c1c(O)ccc2ccccc12`, the IC50 is 59.6 µM. As to `Oc1ccc(N=Cc2ccc(O)c(O)c2)cc1`, the IC50 was 67.6 µM.

Turning to `CCCCCCCCCCOC(=O)Cn1c(COc2ccc(C)cc2)[n+](C)c2ccccc21`, the IC50 is 25.8 µM. Take `c1cnc2c(c1)ccc1cccnc12`: the IC50 was 40 µM. For `O=C(Nc1ccccc1)Nc1ccc(Cl)c([N+](=O)[O-])c1`, the IC50 was 39.2 µM. Take `CCN1/C(=C/C=C/c2sc3ccccc3[n+]2CC)Sc2ccccc21`: the IC50 is 37.2 µM. Then `OCc1ccc(O)c2ncccc12`, with 146 µM; and `Oc1c(C(Nc2cccc(C(F)(F)F)c2)c2cccnc2)ccc2cccnc12` (stereo not given), with 56.2 µM.

With `C/C(=N\Nc1ncnc2sc(C)c(C)c12)c1ccccn1`, the IC50 was 33.4 µM. Next, `Nc1nc2ccccc2n1CCOc1ccccc1Cl`: 104 µM.

Turning to `CCn1cc(C(=O)O)c(=O)c2cc(F)c(N3CCN(C)CC3)cc21`, the IC50 was 1.46 µM. As for `COc1c(N2CCN(C(=S)Nc3ccc(F)cc3)C(C)C2)c(F)cc2c(=O)c(C(=O)O)cn(C3CC3)c12` (stereo not given), the IC50 was 2.68 µM.

Turning to `Oc1cccc2ccc(Nc3ccccn3)nc12`, the IC50 was 14.5 µM.

For the molecule `CCCCCCCCCC[N+](C)(C)CC/C=C1/c2ccccc2Sc2ccc(Cl)cc21`, the IC50 is 40 µM. Next, `O=C(NC(CO)Cc1ccc([N+](=O)[O-])cc1)C(Cl)Cl` (stereo not given): 9.48 µM. Regarding `O=[N+]([O-])c1cc(/C=N/Nc2nc3ccccc3[nH]2)c(O)cc1O`, the IC50 was 32.5 µM. Next, `CCCC(=O)NC(c1ccc(C)cc1)c1ccc2cccnc2c1O` (stereo not given): 54.7 µM; `CN1CCN(C(c2ccc(Br)cc2)c2cc(Cl)c3cccnc3c2O)CC1` (stereo not given): 24 µM.

In the case of `Oc1cccc(/C=N/NC(=S)Nc2cccnc2)c1O`, the IC50 is 28.7 µM.

`CC(=O)NC(c1cccs1)c1cc([N+](=O)[O-])c2cccnc2c1O` (stereo not given): the concentration for half-maximal inhibition (IC50) was 35.5 µM. Consider `CS(=O)(=O)c1ccc([C@@H](O)[C@@H](CF)NC(=O)C(Cl)Cl)cc1`, for which the IC50 was 7.98 µM.

As to `OCCN1CCN(Cc2cc(Cl)c3cccnc3c2O)CC1`, the IC50 was 104 µM. Turning to `CC1CCC(C(C)C)C(OC(=O)Cn2c(COc3ccccc3)[n+](C)c3ccccc32)C1` (stereo not given), the IC50 was 85.5 µM.

As for `Oc1ccc(/C=N/Nc2nccnc2Cl)c(O)c1`, the IC50 was 63.2 µM. As to `Nc1nc(F)nc2c1ncn2[C@@H]1O[C@H](CO)[C@@H](O)[C@H]1O`, the IC50 is 18.3 µM. Turning to `CC(C)Oc1ccc(Cc2cnc(N)nc2N)cc1`, the IC50 is 54.2 µM. Take `COc1cc(C)c(Cc2cnc(N)nc2N)cc1OC`: the IC50 is 3.05 µM. As for `CCOc1ccc(Nc2c3ccccc3nc3ccccc23)cc1`, the half-maximal inhibitory concentration (IC50) was 94 µM. For `CCOC(=O)C1=Nc2ccccc2C1=[N+]=[N-]`, the IC50 was 50 µM.

Take `CCCCCCCCCCCCCCCC[n+]1cccc2ccccc21`: the IC50 was 19.5 µM. In the case of `O=C(Nc1ccccc1)Oc1ccc[nH]c1=O`, the IC50 was 80.6 µM.

Consider `O=C(N/N=C/c1c[nH]c2ccccc12)c1cc(-c2ccc3ccccc3c2)n[nH]1`, for which the IC50 is 68.6 µM. For the molecule `CC(=O)Oc1cc2cccc(OC(C)=O)c(=O)c2c(OC(C)=O)c1OC(C)=O`, the IC50 was 17.7 µM.

As for `CC(C)C(=O)NC(c1cccc([N+](=O)[O-])c1)c1ccc2cccnc2c1O` (stereo not given), the IC50 was 23.3 µM.

As for `O=C(N/N=C/c1ccc([N+](=O)[O-])s1)C(O)c1ccccc1` (stereo not given), the IC50 is 68.4 µM. Consider `Nc1ncn(C2O[C@H](CO)[C@@H](O)[C@H]2O)c(=O)n1` (stereo not given in full), for which the IC50 was 13.2 µM. As for `COc1cccc(/C=N\NC(=O)Cn2nnc3ccccc32)c1O`, the IC50 is 75.1 µM. Next, `O=C(N/N=C/c1ccc(Sc2ccccn2)o1)c1cc2ccccc2cc1O`: 110 µM; `O=C(N/N=C/c1sc2ccccc2c1O)c1cccc2ccccc12`: 40 µM. Next, `CCCCCCCCCCOC(=O)Cn1c(COc2ccccc2OC)[n+](C)c2ccccc21`: 37 µM. For the molecule `O=[N+]([O-])c1ccc(O)c2ncccc12`, the IC50 is 2.7 µM. Turning to `CCC(C)N1CCC2(CC1)N=c1c(c3c4c5c(C)c(O)c3c(O)c1=NC(=O)C(C)=CC=C[C@H](C)[C@H](O)[C@@H](C)[C@@H](O)[C@@H](C)[C@H](OC(C)=O)[C@H](C)[C@@H](OC)C=CO[C@@](C)(O5)C4=O)N2` (stereo not given in full), the IC50 was 3.03 µM.

Take `Nc1nonc1-n1nnc(C(=O)N/N=C/c2cc(Br)ccc2O)c1CSC1=NCCS1`: the IC50 is 145 µM. As to `Nc1nc(N)c(Cc2ccc(Cl)cc2Cl)c(N)n1`, the IC50 was 149 µM.

`CN1CCN(C(c2ccccn2)c2cc(Cl)c3cccnc3c2O)CC1` (stereo not given): the IC50 was 67.3 µM. Next, `COc1ccc(Nc2cc(C)c3c(O)cccc3n2)cc1`: 70 µM; `COc1cccc(N(C(=O)c2ccco2)c2nc(-c3sc(NC(=O)c4ccco4)nc3C)cs2)c1`: 126 µM. Next, `CCOC(=O)N1CCN(C(c2cccnc2)c2ccc3cccnc3c2O)CC1` (stereo not given): 57.1 µM; `Oc1c(C(Nc2ccccn2)c2ccccn2)ccc2cccnc12` (stereo not given): 55.2 µM. For `Nc1cccc2nc3ccccc3cc12`, the IC50 was 43.4 µM. For `Nc1nonc1C(=O)N/N=C/c1cc(Br)ccc1O`, the IC50 is 13 µM. As for `COc1ccc(C(=O)N/N=C/c2sc3ccccc3c2O)cc1`, the IC50 was 109 µM. Regarding `COC1C(OC(=O)c2ccc(C)[nH]2)C(O)C(Oc2ccc3c(O)c(NC(=O)c4ccc(O)c(CC=C(C)C)c4)c(=O)oc3c2Cl)OC1(C)C` (stereo not given), the IC50 is 19.3 µM. As to `Fc1ccccc1CCNCc1ccccc1`, the IC50 is 49.2 µM.

As for `CCn1nc(C(=O)O)c(=O)c2cc3c(cc21)OCO3`, the IC50 was 52.1 µM. Turning to `CCn1cc(C(=O)O)c(=O)c2cc(F)c(N3CCN(C(=S)NC(=O)c4ccccc4C)CC3)cc21`, the IC50 was 22.2 µM. For `O=C1OCC(CO)(CO)N=C1NNc1ccc(Cl)c(Cl)c1`, the IC50 was 53.3 µM. Then `CCCCCCCCCCOC(=O)Cn1c(COc2ccccc2)[n+](C)c2ccccc21`, with 64.3 µM; and `CC(C)(C)/C(O)=C/c1nc2cc(Cl)ccc2oc1=O`, with 55 µM. Take `CCOC(=O)Cc1csc(NC(=O)NC2(C(F)(F)F)Oc3cc(Cl)c(Cl)cc3O2)n1`: the IC50 was 67.8 µM. In the case of `O=C(Oc1ccc[nH]c1=O)c1cc([N+](=O)[O-])cc([N+](=O)[O-])c1`, the IC50 was 79.7 µM. Turning to `CC(=O)Oc1ccc(C(=O)[C@H]2[C@H]3C(=O)N(c4ccc5ccccc5c4)C(=O)[C@H]3[C@@H]3C=CC=NN32)cc1`, the IC50 was 138 µM. With `CCCCCCCCCCCCCCCCn1cc[n+](C)c1`, the IC50 was 13 µM. In the case of `O=C(N/N=C/c1cc(Cl)ccc1O)c1ccncc1`, the IC50 was 31.2 µM. Regarding `CNc1nc(NCc2ccccc2)c2ccccc2n1`, the IC50 is 96.7 µM. As to `O=[N+]([O-])c1cc(O)c2ncccc2c1`, the IC50 is 15.8 µM.

These data come from PubChem BioAssay AID1981 (Southern Research Specialized Biocontainment Screening …, 2009).
